Tests used:
[1] = test system: NCI-H358 (K-Ras G12C); test: CellTiter-Glo cell viability assay, NCI-H358; format: cell-based, human; details: Homo sapiens, NCI-H358, 120 h, NCI-H358, 5-day treatment; class symbols; read-out: Additional H358 Cell Viability assay data (K-Ras G12C, IC50)
Method in brief: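 Viability of K-Ras mutant lines is measured by ATP luminescence after five days of compound treatment. Percent of DMSO control is calculated and dose-response data are fitted with a four-parameter logistic equation.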

[2] = target: KRAS G12S (Homo sapiens (Human), UniProt P01116+P62937, G12S); test: Ras-Raf (BRAF RBD) disruption / FRET / MOA assay, KRAS G12S; format: biochemical; details: Ras-Raf disruption/FRET/MOA assay; class symbols; read-out: KRAS G12S FRET data IC50
Method in brief: (§1)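 Compound-driven ternary complex of nucleotide-loaded Ras with cyclophilin A, disrupting BRAF RBD binding. 10-point 3-fold dilution from 30 μM final, 3 h at 25° C, then anti-His Eu-W1024 (10 nM) and anti-GST allophycocyanin (50 nM) for 1.5 h. IC50 from TR-FRET ratio decrease versus DMSO.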

[3] = target: KRAS G12D (Homo sapiens (Human), UniProt P01116+P62937, G12D); test: Ras-Raf (BRAF RBD) disruption / FRET / MOA assay, KRAS G12D; format: biochemical; details: Ras-Raf disruption/FRET/MOA assay; class symbols; read-out: KRAS G12D FRET data IC50
Method in brief: as §1

[4] = target: NRAS G12C (Homo sapiens (Human), UniProt P01111+P62937, G12C); test: Ras-Raf (BRAF RBD) disruption / FRET / MOA assay, NRAS G12C; format: biochemical; details: read-out: IC50* NRAS G12C FRET data
Method in brief: as §1

[5] = target: KRAS G12V (Homo sapiens (Human), UniProt P01116+P62937, G12V); test: Ras-Raf (BRAF RBD) disruption / FRET / MOA assay, KRAS G12V; format: biochemical; details: read-out: IC50* KRAS G12V FRET data
Method in brief: as §1

[6] = target: KRAS G13D (Homo sapiens (Human), UniProt P01116+P62937, G13D); test: Ras-Raf (BRAF RBD) disruption / FRET / MOA assay, KRAS G13D; format: biochemical; details: read-out: IC50* KRAS G13D FRET data
Method in brief: as §1

[7] = target: KRAS WT (Homo sapiens (Human), UniProt P01116+P62937); test: Ras-Raf (BRAF RBD) disruption / FRET / MOA assay, KRAS WT; format: biochemical; details: read-out: IC50* KRAS WT FRET data
Method in brief: as §1

[8] = target: NRAS Q61K (Homo sapiens (Human), UniProt P01111+P62937, Q61K); test: Ras-Raf (BRAF RBD) disruption / FRET / MOA assay, NRAS Q61K; format: biochemical; details: NRAS Q61K; Ras-Raf disruption/FRET/MOA assay; read-out: IC50* NRAS Q61K FRET data
Method in brief: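 Compounds (30 μM top final, 10-point 3-fold dilutions) incubated 3 h at 25° C with nucleotide-loaded Ras, cyclophilin A and BRAF RBD. Detection with 10 nM anti-His Eu-W1024 and 50 nM anti-GST allophycocyanin over another 1.5 h. Lowered TR-FRET ratio relative to DMSO wells gives IC50.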

Chain of KRAS G12V (P01116-2 other isoform, or with tags, fused parts or gaps G12V): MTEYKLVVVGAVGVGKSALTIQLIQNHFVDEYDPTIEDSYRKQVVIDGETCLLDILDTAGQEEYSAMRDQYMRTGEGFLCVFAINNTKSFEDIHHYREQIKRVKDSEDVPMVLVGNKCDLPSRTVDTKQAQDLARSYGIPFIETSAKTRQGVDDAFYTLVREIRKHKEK
Chain of KRAS G12V (P62937 whole entry): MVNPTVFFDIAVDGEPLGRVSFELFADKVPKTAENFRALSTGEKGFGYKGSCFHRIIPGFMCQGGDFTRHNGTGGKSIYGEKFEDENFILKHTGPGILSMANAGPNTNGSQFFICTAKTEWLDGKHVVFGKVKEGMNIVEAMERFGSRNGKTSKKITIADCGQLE
Chain of NRAS G12C (P01111 whole entry G12C): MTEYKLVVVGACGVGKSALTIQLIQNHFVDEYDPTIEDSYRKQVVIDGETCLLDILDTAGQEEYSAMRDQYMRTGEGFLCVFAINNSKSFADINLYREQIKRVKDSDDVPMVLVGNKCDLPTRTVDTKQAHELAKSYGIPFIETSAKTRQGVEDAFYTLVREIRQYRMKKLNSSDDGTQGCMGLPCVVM
Chain of NRAS G12C (P62937 whole entry): as the sequence (P62937 whole entry) above
Chain of KRAS WT (P01116-2 other isoform, or with tags, fused parts or gaps): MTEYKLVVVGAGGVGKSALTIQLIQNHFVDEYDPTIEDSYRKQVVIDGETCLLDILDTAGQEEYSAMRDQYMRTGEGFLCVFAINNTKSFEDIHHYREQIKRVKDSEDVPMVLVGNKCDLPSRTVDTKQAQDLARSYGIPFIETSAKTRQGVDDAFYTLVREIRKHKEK
Chain of KRAS WT (P62937 whole entry): as the sequence (P62937 whole entry) above
Chain of NRAS Q61K (P01111 whole entry Q61K): as the sequence (P01111 whole entry G12C) above, with C12G, Q61K counted along it
Chain of NRAS Q61K (P62937 whole entry): as the sequence (P62937 whole entry) above
Chain of KRAS G13D (P01116-2 other isoform, or with tags, fused parts or gaps G13D): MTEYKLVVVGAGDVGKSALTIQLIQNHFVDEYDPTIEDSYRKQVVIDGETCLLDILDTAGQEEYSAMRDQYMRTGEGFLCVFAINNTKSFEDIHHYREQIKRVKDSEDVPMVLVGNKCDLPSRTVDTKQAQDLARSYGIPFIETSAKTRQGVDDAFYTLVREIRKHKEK
Chain of KRAS G13D (P62937 whole entry): as the sequence (P62937 whole entry) above
Chain of KRAS G12S (P01116-2 other isoform, or with tags, fused parts or gaps G12S): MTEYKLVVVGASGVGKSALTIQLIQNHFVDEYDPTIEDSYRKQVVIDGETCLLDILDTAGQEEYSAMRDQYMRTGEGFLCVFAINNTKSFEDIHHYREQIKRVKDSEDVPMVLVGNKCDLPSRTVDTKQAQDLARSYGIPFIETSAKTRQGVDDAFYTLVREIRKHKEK
Chain of KRAS G12S (P62937 whole entry): as the sequence (P62937 whole entry) above
Chain of KRAS G12D (P01116-2 other isoform, or with tags, fused parts or gaps G12D): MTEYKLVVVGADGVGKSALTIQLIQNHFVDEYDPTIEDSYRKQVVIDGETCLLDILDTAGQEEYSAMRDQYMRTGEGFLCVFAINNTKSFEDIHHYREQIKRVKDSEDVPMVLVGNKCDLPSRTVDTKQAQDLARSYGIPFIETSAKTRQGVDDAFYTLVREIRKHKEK
Chain of KRAS G12D (P62937 whole entry): as the sequence (P62937 whole entry) above

SMILES: CCn1c(-c2cccnc2[C@H](C)OC)c2c3cc(ccc31)-c1csc(n1)C[C@H](NC(=O)[C@H](C(C)C)N(C)C(=O)N1CCCOC13CN(C(=O)C#CC(C)(C)N(C)C)C3)C(=O)N1CCC[C@H](N1)C(=O)OCC(C)(C)C2 (atropisomer, axis not shown) [Example A666]
- IC50 [1]: 10 to 100 nM
- IC50 [2]: > 10000 nM
- IC50 [3]: > 10000 nM
- IC50 [4]: 1000 to 10000 nM
- IC50 [5]: > 10000 nM
- IC50 [6]: > 10000 nM
- IC50 [7]: > 10000 nM
- IC50 [8]: > 10000 nM

SMILES: C=CC(=O)N1CC[C@]2(COCCN2C(=O)N(C)[C@H](C(=O)N[C@H]2Cc3nc(cs3)-c3ccc4c(c3)c(c(-c3cccnc3[C@H](C)OC)n4CC)CC(C)(C)COC(=O)[C@@H]3CCCN(N3)C2=O)C(C)C)C1 (atropisomer, axis not shown) [Example A676]
- IC50 [1]: 10 to 100 nM
- IC50 [2]: 1000 to 10000 nM
- IC50 [3]: 1000 to 10000 nM
- IC50 [4]: 10 to 100 nM
- IC50 [5]: 1000 to 10000 nM
- IC50 [6]: 1000 to 10000 nM
- IC50 [7]: 100 to 1000 nM
- IC50 [8]: 100 to 1000 nM

SMILES: C=CC(=O)N1CC2(CCN(C(=O)N(C)[C@H](C(=O)N[C@H]3Cc4cccc(c4)-c4ccc5c(c4)c(c(-c4cccnc4[C@H](C)OC)n5CC)CC(C)(C)COC(=O)[C@@H]4CCCN(N4)C3=O)C(C)C)CC2)C1 (atropisomer, axis not shown) [Example A680]
- IC50 [1]: 10 to 100 nM
- IC50 [2]: 100 to 1000 nM
- IC50 [3]: 1000 to 10000 nM
- IC50 [4]: 100 to 1000 nM
- IC50 [5]: 100 to 1000 nM
- IC50 [6]: 1000 to 10000 nM
- IC50 [7]: 100 to 1000 nM
- IC50 [8]: 100 to 1000 nM

SMILES: C=CC(=O)N1CC[C@@H]2[C@H](C1)CN2C(=O)N(C)[C@H](C(=O)N[C@H]1Cc2nc(cs2)-c2ccc3c(c2)c(c(-c2cccnc2[C@H](C)OC)n3CC)CC(C)(C)COC(=O)[C@@H]2CCCN(N2)C1=O)C(C)C (atropisomer, axis not shown) [Example A688]
- IC50 [1]: 100 to 1000 nM
- IC50 [2]: 1000 to 10000 nM
- IC50 [3]: 1000 to 10000 nM
- IC50 [4]: 100 to 1000 nM
- IC50 [5]: 1000 to 10000 nM
- IC50 [6]: 1000 to 10000 nM
- IC50 [7]: 100 to 1000 nM
- IC50 [8]: 100 to 1000 nM

SMILES: C=CC(=O)N1CCC2(CCCN(C(=O)N(C)[C@H](C(=O)N[C@H]3Cc4nc(cs4)-c4ccc5c(c4)c(c(-c4cccnc4[C@H](C)OC)n5CC)CC(C)(C)COC(=O)[C@@H]4CCCN(N4)C3=O)C(C)C)C2)CC1 (atropisomer, axis not shown) [Example A696]
- IC50 [1]: 100 to 1000 nM
- IC50 [2]: 100 to 1000 nM
- IC50 [3]: 100 to 1000 nM
- IC50 [4]: 100 to 1000 nM
- IC50 [5]: 100 to 1000 nM
- IC50 [6]: 1000 to 10000 nM
- IC50 [7]: 100 to 1000 nM
- IC50 [8]: 10 to 100 nM

SMILES: CCn1c(-c2cccnc2[C@H](C)OC)c2c3cc(ccc31)-c1cccc(c1)C[C@H](NC(=O)[C@@H](COC1CN(C(=O)C#CC(C)(C)O)C1)C(C)C)C(=O)N1CCC[C@H](N1)C(=O)OCC(C)(C)C2 (atropisomer, axis not shown) [Example A708]
- IC50 [1]: 10 to 100 nM
- IC50 [2]: > 10000 nM
- IC50 [3]: > 10000 nM
- IC50 [4]: 100 to 1000 nM
- IC50 [5]: 1000 to 10000 nM
- IC50 [6]: > 10000 nM
- IC50 [7]: 1000 to 10000 nM
- IC50 [8]: > 10000 nM

SMILES: CCn1c(-c2cccnc2[C@H](C)OC)c2c3cc(ccc31)-c1csc(n1)C[C@H](NC(=O)[C@H](C(C)C)N(C)C(=O)N1CCN(C(=O)/C=C/CN(C)C)C[C@@H]1C)C(=O)N1CCC[C@H](N1)C(=O)OCC(C)(C)C2 (atropisomer, axis not shown) [Example A709]
- IC50 [1]: 10 to 100 nM
- IC50 [2]: 100 to 1000 nM
- IC50 [3]: 100 to 1000 nM
- IC50 [4]: 10 to 100 nM
- IC50 [5]: 100 to 1000 nM
- IC50 [6]: 100 to 1000 nM
- IC50 [7]: 100 to 1000 nM
- IC50 [8]: 10 to 100 nM

SMILES: CCn1c(-c2cccnc2[C@H](C)OC)c2c3cc(ccc31)-c1csc(n1)C[C@H](NC(=O)[C@H](C(C)C)N(C)C(=O)N1CC(N(C)C(=O)/C=C/CN(C)C)C1)C(=O)N1CCC[C@H](N1)C(=O)OCC(C)(C)C2 (atropisomer, axis not shown) [Example A710]
- IC50 [1]: 10 to 100 nM
- IC50 [2]: 100 to 1000 nM
- IC50 [3]: 100 to 1000 nM
- IC50 [4]: 10 to 100 nM
- IC50 [5]: 100 to 1000 nM
- IC50 [6]: 100 to 1000 nM
- IC50 [7]: 100 to 1000 nM
- IC50 [8]: 10 to 100 nM

SMILES: C=C(OC)C(=O)N1CC(N(C)C(=O)N(C)[C@H](C(=O)N[C@H]2Cc3nc(cs3)-c3ccc4c(c3)c(c(-c3cccnc3[C@H](C)OC)n4CC)CC(C)(C)COC(=O)[C@@H]3CCCN(N3)C2=O)C(C)C)C1 (atropisomer, axis not shown) [Example A713]
- IC50 [1]: 10 to 100 nM
- IC50 [2]: 100 to 1000 nM
- IC50 [3]: 1000 to 10000 nM
- IC50 [4]: 100 to 1000 nM
- IC50 [5]: 1000 to 10000 nM
- IC50 [6]: 1000 to 10000 nM
- IC50 [7]: 100 to 1000 nM
- IC50 [8]: 100 to 1000 nM

SMILES: C=CC(=O)N1CC[C@H](C(=O)N(C)[C@H](C(=O)N[C@H]2CN3CCC=C(C3)c3ccc4c(c3)c(c(-c3cccnc3[C@H](C)OC)n4CC)CC(C)(C)COC(=O)[C@@H]3CCCN(N3)C2=O)C(C)C)C1 (atropisomer, axis not shown) [Example A716, (3S)-1-acryloyl-N-((2S)-1-(((6^3S,4S)-1^1-ethyl-1^2-(2-((S)-1-methoxyethyl)pyridin-3-yl)-10,10-dimethyl-5,7-dioxo-2^1,2^2,2^3,2^6,6^1,6^2,6^3,6^4,6^5,6^6-decahydro-1^1H-8-oxa-1(5,3)-indola-6(1,3)-pyridazina-2(5,1)-pyridinacycloundecaphane-4-yl)amino)-3-methyl-1-oxobutan-2-yl)-N-methylpyrrolidine-3-carboxamide]
- IC50 [1]: 10 to 100 nM
- IC50 [2]: 1000 to 10000 nM
- IC50 [3]: > 10000 nM
- IC50 [4]: 100 to 1000 nM
- IC50 [5]: 1000 to 10000 nM
- IC50 [6]: > 10000 nM
- IC50 [7]: 1000 to 10000 nM
- IC50 [8]: > 10000 nM

SMILES: CCn1c(-c2cccnc2[C@H](C)OC)c2c3cc(ccc31)-c1nc(nn1C)C[C@H](NC(=O)[C@@H](COC1CN(C(=O)C#CC(C)(C)N(C)C)C1)C(C)C)C(=O)N1CCC[C@H](N1)C(=O)OCC(C)(C)C2 (atropisomer, axis not shown) [Example A720, (2R)-2-(((1-(4-(dimethylamino)-4-methylpent-2-ynoyl)azetidin-3-yl)oxy)methyl)-N-((6^3S,4S,Z)-1^1-ethyl-1^2-(2-((S)-1-methoxyethyl)pyridin-3-yl)-2^1,10,10-trimethyl-5,7-dioxo-6^1,6^2,6^3,6^4,6^5,6^6-hexahydro-1^1H,2^1H-8-oxa-1(5,3)-indola-6(1,3)-pyridazina-2(5,3)-triazolacycloundecaphane-4-yl)-3-methylbutanamide]
- IC50 [1]: 10 to 100 nM
- IC50 [2]: 1000 to 10000 nM
- IC50 [3]: > 10000 nM
- IC50 [4]: 10 to 100 nM
- IC50 [5]: 1000 to 10000 nM
- IC50 [6]: 1000 to 10000 nM
- IC50 [7]: 1000 to 10000 nM
- IC50 [8]: 1000 to 10000 nM

SMILES: C=CC(=O)N1CCC(F)(C(=O)N(C)[C@H](C(=O)N[C@H]2C[C@H]3CN(CCO3)c3ccc4c(c3)c(c(-c3cccnc3[C@H](C)OC)n4CC)CC(C)(C)COC(=O)[C@@H]3CCCN(N3)C2=O)C(C)C)CC1 (atropisomer, axis not shown) [Example A722, 1-acryloyl-N-((2S)-1-(((6^3S,4S)-1^1-ethyl-1^2-(2-((S)-1-methoxyethyl)pyridin-3-yl)-10,10-dimethyl-5,7-dioxo-6^1,6^2,6^3,6^4,6^5,6^6-hexahydro-1^1H-8-oxa-2(4,2)-morpholina-1(5,3)-indola-6(1,3)-pyridazinacycloundecaphane-4-yl)amino)-3-methyl-1-oxobutan-2-yl)-4-fluoro-N-methylpiperidine-4-carboxamide]
- IC50 [1]: 10 to 100 nM
- IC50 [2]: 1000 to 10000 nM
- IC50 [3]: 1000 to 10000 nM
- IC50 [4]: 10 to 100 nM
- IC50 [5]: 1000 to 10000 nM
- IC50 [6]: 1000 to 10000 nM
- IC50 [7]: 100 to 1000 nM
- IC50 [8]: 1000 to 10000 nM

From patent publication US11566007B2, “Ras inhibitors” (Revolution Medicines, Inc., priority 2019, dated 2023)
